Patent publication US8198456B2, “Dihydropyridine derivatives as useful as protein kinase inhibitors” (Bayer Intellectual Property GmbH, priority 2006, dated 2012)

Biological target: T1, recombinant human c-MET kinase enzyme domain (Homo sapiens, UniProt P08581)
T1 construct: Recombinant c-Met kinase domain (amino acids 960-1390); His (N); made in house; host or cells: baculovirus expression system (insect cells; SF21 is named only for the alternative format)
Assay: c-MET receptor tyrosine kinase Homogeneous Time Resolved Fluorescence assay (HTRF)
Type: biochemical
Settings: Biological Example 1 and/or Biological Example 2
Excerpt: Recombinant c-Met kinase domain (amino acids 960-1390) was produced in a baculovirus expression vector as an N-terminal His-tagged fusion protein and purified on a NiNTA column. The resulting purified enzyme was then used in the following c-Met Homogeneous Time Resolved Fluorescence assay (HTRF) to find compounds of the invention and to perform initial activity determinations. Specifically, this assay measures the ability of compounds of the invention to inhibit the phosphorylation of a randomly synthesized, biotinylated heterocopolymeric polypeptide composed of glutamic acid and tyrosine, with an average length of 100 aa. The assay analyzes the amount of phosphorylated polypeptide produced.
The enzymatic phosphorylation of the biotinylated heterocopolymeric polypeptide was performed in a black 384-well plate at ambient temperature in a reaction mixture containing 50 mM HEPES (pH 7.4), 5 mM MgCl2, 5 mM MnCl2, 0.01% Tween-20, and 2 mM DTT, […] recombinant human c-MET kinase enzyme domain, 37 nM biotinylated heterocopolymeric polypeptide composed of glutamic acid and tyrosine, 20 μM ATP, 1% DMSO in the absence or presence of a compound of the invention. The reaction was stopped after a 20-minute incubation by the addition of 80 mM EDTA.
The formation of phosphorylated heterocopolymeric, biotinylated polypeptide was quantified with the HTRF assay technology using an anti-phosphotyrosine antibody, PT66, conjugated to europium cryptate, mixed with a streptavidin-XL665 conjugate. Reduced or inhibited phosphorylation of the heterocopolymeric, biotinylated polypeptide prevents the anti-phosphotyrosine antibody from binding to the peptide, resulting in a loss of energy transfer to the streptavidin-XL665 conjugate.
Following the 384-well enzymatic phosphorylation reaction outlined above, the detection of phosphorylated heterocopolymeric, biotinylated polypeptide was performed by dilution of the stopped reaction mixture 2-fold with 50 mM HEPES (pH 7.0), 500 mM KF, 0.1% BSA, streptavidin-XL665 (20 nM), and anti-phosphotyrosine antibody PT66-crypate conjugate (6.4 ng/well) and incubation for four hours at ambient temperature. Plates were read in an Envision plate reader (PerkinElmer Life and Analytical Sciences, Inc., MA) simultaneously at 620 nm and 665 nm to obtain signal ratios of 665 nm/620 nm. Results of energy transfer were expressed as signal ratios of 665 nm/620 nm. Negative controls were samples without recombinant c-MET or c-MET treated with 100 mM EDTA.
For determination of IC50 values of particular compounds of the invention, eight serially diluted compound concentrations (at 1:3.16 dilution) were used in the assay. Controls without a compound of the invention or with a reference compound were run in parallel in the same assay plate.

T1 sequence (P08581 960-1390): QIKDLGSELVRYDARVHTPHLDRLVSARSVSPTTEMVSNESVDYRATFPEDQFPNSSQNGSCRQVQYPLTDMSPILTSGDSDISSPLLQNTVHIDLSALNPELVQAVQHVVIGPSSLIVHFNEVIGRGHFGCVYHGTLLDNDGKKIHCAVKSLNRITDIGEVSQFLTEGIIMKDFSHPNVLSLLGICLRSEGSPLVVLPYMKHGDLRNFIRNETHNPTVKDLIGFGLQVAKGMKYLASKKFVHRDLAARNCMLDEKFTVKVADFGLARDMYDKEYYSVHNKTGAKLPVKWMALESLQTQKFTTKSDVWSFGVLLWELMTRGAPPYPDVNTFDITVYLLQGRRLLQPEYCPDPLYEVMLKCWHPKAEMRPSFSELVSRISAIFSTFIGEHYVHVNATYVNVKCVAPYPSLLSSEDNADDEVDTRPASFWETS

| IC50 | Compound |
| --- | --- |
| < 100 nM | CC1=C(C#N)C(c2ccc3[nH]nc(C(=O)NCCC4CCCN4C)c3c2)C(C#N)=C(C)N1 (stereo not shown) [compound 125, 5-(3,5-dicyano-1,4-dihydro-2,6-dimethyl-4-pyridinyl)-N-[2-(1-methyl-2-pyrrolidinyl)ethyl]-1H-indazole-3-carboxamide] |
| 500 to 2500 nM | CC1=C(C#N)C(c2ccc3[nH]nc(NCc4ccc([N+](=O)[O-])cc4)c3c2)C(C#N)=C(C)N1 [compound 127, 1,4-dihydro-2,6-dimethyl-4-[3-[[(4-nitrophenyl)methyl]amino]-1H-indazol-5-yl]-3,5-pyridinedicarbonitrile] |
| < 100 nM | CC1=C(C#N)C(c2ccc3[nH]nc(NCc4ccc(N)cc4)c3c2)C(C#N)=C(C)N1 [compound 128, 4-[3-[[(4-aminophenyl)methyl]amino]-1H-indazol-5-yl]-1,4-dihydro-2,6-dimethyl-3,5-pyridinedicarbonitrile] |
| < 100 nM | CC1=C(C#N)C(c2ccc3[nH]nc(NC(=O)c4ccccc4)c3c2)C(C#N)=C(C)N1 [compound 129, N-[5-(3,5-dicyano-1,4-dihydro-2,6-dimethyl-4-pyridinyl)-1H-indazol-3-yl]-benzamide] |
| 500 to 2500 nM | CC1=C(C#N)C(c2ccc3[nH]nc(CN4CCN(c5ccncc5)CC4)c3c2)C(C#N)=C(C)N1 [compound 130, 1,4-dihydro-2,6-dimethyl-4-[3-[[4-(4-pyridinyl)-1-piperazinyl]methyl]-1H-indazol-5-yl]-3,5-pyridinedicarbonitrile] |
| 500 to 2500 nM | CC1=C(C#N)C(c2ccc3[nH]nc(NCC4CCN(C(=O)OC(C)(C)C)CC4)c3c2)C(C#N)=C(C)N1 [compound 131, 4-[[[5-(3,5-dicyano-1,4-dihydro-2,6-dimethyl-4-pyridinyl)-1H-indazol-3-yl]-amino]methyl]-1-piperidinecarboxylic acid 1,1-dimethylethyl ester] |
| < 100 nM | CC1=C(C#N)C(c2ccc3[nH]nc(NCC4CCNCC4)c3c2)C(C#N)=C(C)N1 [compound 133, 1,4-dihydro-2,6-dimethyl-4-[3-[(4-piperidinylmethyl)amino]-1H-indazol-5-yl]-3,5-pyridinedicarbonitrile] |
| < 100 nM | COC(=O)c1ccc(CNc2n[nH]c3ccc(C4C(C#N)=C(C)NC(C)=C4C#N)cc23)cc1 [compound 135, 4-[[[5-(3,5-dicyano-1,4-dihydro-2,6-dimethyl-4-pyridinyl)-1H-indazol-3-yl]-amino]methyl]-benzoic acid methyl ester] |
| < 100 nM | CC1=C(C#N)C(c2ccc3[nH]nc(NCc4ccc(C(=O)O)cc4)c3c2)C(C#N)=C(C)N1 [compound 136, 4-[[[5-(3,5-dicyano-1,4-dihydro-2,6-dimethyl-4-pyridinyl)-1H-indazol-3-yl]-amino]methyl]-benzoic acid] |
| < 100 nM | CC1=C(C#N)C(c2ccc3[nH]nc(-c4ccc(N5CCN(C)CC5)nc4)c3c2)C(C#N)=C(C)N1 [compound 137, 1,4-dihydro-2,6-dimethyl-4-[3-[6-(4-methyl-1-piperazinyl)-3-pyridinyl]-1H-indazol-5-yl]-3,5-pyridinedicarbonitrile] |
| < 100 nM | CC1=C(C#N)C(c2ccc3[nH]nc(-c4ccc(CN(C)C)cc4)c3c2)C(C#N)=C(C)N1 [compound 138, 4-[3-[4-[(dimethylamino)methyl]phenyl]-1H-indazol-5-yl]-1,4-dihydro-2,6-dimethyl-3,5-pyridinedicarbonitrile] |
| < 100 nM | CC1=C(C#N)C(c2ccc3[nH]nc(C#CCN(C)C)c3c2)C(C#N)=C(C)N1 [compound 139, 4-[3-[3-(dimethylamino)-1-propynyl]-1H-indazol-5-yl]-1,4-dihydro-2,6-dimethyl-3,5-pyridinedicarbonitrile] |
| < 100 nM | CC1=C(C#N)C(c2ccc3[nH]nc(-c4ccc(N5CCN(C)CC5)cc4)c3c2)C(C#N)=C(C)N1 [compound 140, 1,4-dihydro-2,6-dimethyl-4-[3-[4-(4-methyl-1-piperazinyl)phenyl]-1H-indazol-5-yl]-3,5-pyridinedicarbonitrile] |
| 500 to 2500 nM | CCN(CC)CC(=O)Nc1n[nH]c2ccc(C3C(C#N)=C(C)NC(C)=C3C#N)cc12 [compound 141, N-[5-(3,5-dicyano-1,4-dihydro-2,6-dimethyl-4-pyridinyl)-1H-indazol-3-yl]-2-(diethylamino)-acetamide] |
| < 100 nM | CC1=C(C#N)C(c2ccc3[nH]nc(-c4nc5ccccc5[nH]4)c3c2)C(C#N)=C(C)N1 [compound 142, 4-[3-(1H-benzimidazol-2-yl)-1H-indazol-5-yl]-1,4-dihydro-2,6-dimethyl-3,5-pyridinedicarbonitrile] |
| < 100 nM | CON(C)C(=O)c1n[nH]c2ccc(C3C(C#N)=C(C)NC(C)=C3C#N)cc12 [compound 143, 5-(3,5-dicyano-1,4-dihydro-2,6-dimethyl-4-pyridinyl)-N-methoxy-N-methyl-1H-indazole-3-carboxamide] |
| < 100 nM | CC1=C(C#N)C(c2ccc3[nH]nc(CO)c3c2)C(C#N)=C(C)N1 [compound 144, 1,4-dihydro-4-[3-(hydroxymethyl)-1H-indazol-5-yl]-2,6-dimethyl-3,5-pyridinedicarbonitrile] |
| < 100 nM | CC1=C(C#N)C(c2ccc3[nH]nc(C=O)c3c2)C(C#N)=C(C)N1 [compound 145, 4-(3-formyl-1H-indazol-5-yl)-1,4-dihydro-2,6-dimethyl-3,5-pyridinedicarbonitrile] |
| < 100 nM | CNC(=O)Nc1n[nH]c2ccc(C3C(C#N)=C(C)NC(C)=C3C#N)cc12 [compound 147, N-[5-(3,5-dicyano-1,4-dihydro-2,6-dimethyl-4-pyridinyl)-1H-indazol-3-yl]-N′-methyl-urea] |
| < 100 nM | CC1=C(C#N)C(c2ccc3[nH]nc(Cl)c3c2)C(C#N)=C(C)N1 [compound 148, 4-(3-chloro-1H-indazol-5-yl)-1,4-dihydro-2,6-dimethyl-3,5-pyridinedicarbonitrile] |
| < 100 nM | CC1=C(C#N)C(c2ccc3[nH]nc(/C=N/O)c3c2)C(C#N)=C(C)N1 [compound 149, 1,4-dihydro-4-[3-[(E)-(hydroxyimino)methyl]-1H-indazol-5-yl]-2,6-dimethyl-3,5-pyridinedicarbonitrile] |
| < 100 nM | CC1=C(C#N)C(c2ccc3[nH]nc(NCc4cnc[nH]4)c3c2)C(C#N)=C(C)N1 [compound 150, 1,4-dihydro-4-[3-[(1H-imidazol-4-ylmethyl)amino]-1H-indazol-5-yl]-2,6-dimethyl-3,5-pyridinedicarbonitrile] |
| < 100 nM | CC1=C(C#N)C(c2ccc3[nH]nc(Br)c3c2)C(C#N)=C(C)N1 [compound 151, 4-(3-bromo-1H-indazol-5-yl)-1,4-dihydro-2,6-dimethyl-3,5-pyridinedicarbonitrile] |
| < 100 nM | CC1=C(C#N)C(c2ccc3[nH]nc(-c4ccc(N5CCN(CCO)CC5)cc4)c3c2)C(C#N)=C(C)N1 [compound 152, 1,4-dihydro-4-[3-[4-[4-(2-hydroxyethyl)-1-piperazinyl]phenyl]-1H-indazol-5-yl]-2,6-dimethyl-3,5-pyridinedicarbonitrile] |
| < 100 nM | CC1=C(C#N)C(c2ccc3[nH]nc(-c4ccc(N5CCN(C(=O)OC(C)(C)C)CC5)cc4)c3c2)C(C#N)=C(C)N1 [compound 155, 4-[4-[5-(3,5-dicyano-1,4-dihydro-2,6-dimethyl-4-pyridinyl)-1H-indazol-3-yl]-phenyl]-1-piperazinecarboxylic acid 1,1-dimethylethyl ester] |
| < 100 nM | CC1=C(C#N)C(c2ccc3[nH]nc(-c4cnn(C5CCNCC5)c4)c3c2)C(C#N)=C(C)N1 [compound 157, 1,4-dihydro-2,6-dimethyl-4-[3-[1-(4-piperidinyl)-1H-pyrazol-4-yl]-1H-indazol-5-yl]-3,5-pyridinedicarbonitrile] |
| < 100 nM | CC(=O)c1n[nH]c2ccc(C3C(C#N)=C(C)NC(C)=C3C#N)cc12 [compound 158, 4-(3-acetyl-1H-indazol-5-yl)-1,4-dihydro-2,6-dimethyl-3,5-pyridinedicarbonitrile] |
| < 100 nM | CO/N=C/c1n[nH]c2ccc(C3C(C#N)=C(C)NC(C)=C3C#N)cc12 [compound 159, 1,4-dihydro-4-[3-[(E)-(methoxyimino)methyl]-1H-indazol-5-yl]-2,6-dimethyl-3,5-pyridinedicarbonitrile] |
